This passage reports mass density and refractive index results from the NIST ThermoML archive (doi:10.1021/je300826t).

± gives the expanded uncertainty stated by the source.

For data set [1] the following is noted: 298.15 K; 101.33 kPa; Liquid; Vibrating tube method.
Data set [2] in a line: refractive index (Na D-line) (dimensionless). The note with it: 298.15 K; 101.33 kPa; Liquid; Standard Abbe refractometry.

The term mass density denotes the mass of a sample divided by its volume. A word on the refractive index: it is a measure of how strongly the sample bends light. As to `CC1CCCCC1` [methylcyclohexane], the mass density in data set [1] is given as 765.02 ± 0.24 kg/m3. In data set [2], the refractive index is 1.42062 ± 0.0007.

On to `c1ccccc1` [benzene], for which the mass density in data set [1] was 873.57 ± 0.11 kg/m3. The refractive index in data set [2] was determined as 1.49774 ± 0.00068.

For `C1CCCCC1` [cyclohexane], the mass density in data set [1] is 773.8 ± 0.13 kg/m3. Besides, the refractive index in data set [2] is given as 1.4236 ± 0.00068.

`CCc1ccccc1` [ethylbenzene]: the mass density in data set [1] came out at 862.51 ± 0.11 kg/m3. Moreover, the refractive index in data set [2] came out at 1.49304 ± 0.00068.

Turning to `CCCCn1cc[n+](C)c1.COS(=O)(=O)[O-]` [1-butyl-3-methylimidazolium methyl sulfate], in data set [1], the mass density was found to be 1212.59 ± 0.41 kg/m3. Moreover, in data set [2], the refractive index is on record as 1.47792 ± 0.0007.

On to `C1CCCCCCC1` [cyclooctane], for which, in data set [1], the mass density is listed as 831.47 ± 0.24 kg/m3. Further, the refractive index in data set [2] worked out at 1.45598 ± 0.0007.
